{"source": "patent US8119667B2", "about": "“Carbonates of fenicol antibiotics” (Schering-Plough Animal Health Corporation, priority 2005, dated 2012)", "key": {"[1]": {"assay": "In vitro enzymatic release of parent florfenicol from prodrugs in bovine serum", "assay_type": "in vitro ADME", "conditions": "37° C.", "text": "The ability of a prodrug derivative of a parent drug molecule to act efficiently in vivo as a source of the free parent drug determines the utility of a particular prodrug for treatment. The prodrug's ability to release the parent drug in vivo, in the presence of endogenous enzymes, can be determined by measuring the systemic levels of the parent drug after administration of the prodrug to the animal. This releasibility can also be assessed in vitro by measuring the release of the parent drug after mixing with animal whole blood, plasma or serum. Selected benzylic carbonate prodrugs of florfenicol were tested for release of florfenicol after in vitro mixing with bovine serum. […] A general trend of more lipophilic carbonates of florfenicol showing higher rates of degradation and release seems to be present among the compounds tested.\n50 microliter of stock solution of carbonate pro-drug (10 mg/mL in DMSO) was added to 5 mL donor bovine serum and mixed. Aliquots of 400 microliter of the resulting solution were transferred into 1.5 mL plastic centrifuge tubes. Each plastic tube was placed into at 37° C. water bath for incubation. Samples were removed at 0, 1, 2, 4, 8, and 24 hours, and after addition of 400 microliter of acetonitrile to stop the reaction, rapidly stirred for 30 seconds. The precipitate was removed by centrifugation on an Eppendorf 5415G at 14000 rpm for 5 minutes. The clear supernatant solution was sampled for the HPLC analysis. The peak area of florfenicol was used to calculate the conversion of the prodrugs."}, "[2]": {"assay": "Solubility in triacetin/benzyl alcohol 2:1 (volume/volume) solvent mixture", "assay_type": "physicochemical", "conditions": "20° C.", "protocol": "Florfenicol parent drug was not soluble in triacetin/benzyl alcohol 2:1 (volume/volume) even at concentrations as low as 10% (weight/volume). […] The combination of prodrug of Example 14 at 275 mg/ml and florfenicol at 100 mg/ml was soluble in triacetin/benzyl alcohol 2:1 (volume/volume) and provided a stable solution with 30% (weight/volume) content of florfenicol (Table 4, supra, entry 12)."}, "[3]": {"tested_on": "naturally occurring bovine respiratory disease (BRD)", "assay": "Therapeutic efficacy of a single SC dose in cattle with naturally occurring bovine respiratory disease", "assay_type": "in vivo", "text": "Therapeutic efficacy of a single dose of Nuflor® (Schering-Plough Animal Health) was compared with a single dose of the prodrug compound of Example 2 after SC administration in cattle suffering from naturally occurring bovine respiratory disease (BRD)."}, "[4]": {"assay": "Syringeability of dosing solutions (dripping-syringe method)", "assay_type": "physicochemical", "conditions": "418 mg/ml (35% weight by volume florfenicol); Triacetin/benzyl alcohol - 2:1; 15° C."}, "[5]": {"assay": "In vivo release of florfenicol: plasma levels after prodrug administration to cattle", "conditions": "for AUC: bovine, plasma, sc, 40 mg/kg", "protocol": "The pharmacokinetic profile of active antibiotic after prodrug administration, in vivo, was determined, as follows: • 1. In vivo release of active antibiotic confirmed in two different animal species: • The prodrug compound of Example 18 was administered by an intravenous (“IV”) route to rat and cattle subjects, followed by determination of florfenicol concentrations in the plasma collected over time. • The data of Table 8, below, illustrates the plasma levels of florfenicol that resulted following IV administration of the prodrug compound of Example 18, to both rat and cattle. • 2. Active antibiotic is released from the prodrug irrespective of route of administration of the prodrug: • The data of Table 9, below, illustrates the plasma levels of florfenicol that resulted following administration of the prodrug compound of Example 2, by two different routes, i.e., IV and subcutaneous (“SC”). • 3. A dose-dependant increase in the release of active moiety: • The data of table 10, below, confirms a dose-dependent increase in the plasma levels of active antibiotic (florfenicol) following administration of rising doses of prodrug compound of Example 2. • 4. Time of release of active moiety: • a. […] The data of tables 13 and 14, below, confirms that the active antibiotic is quickly released from the prodrug compound of Example 2, when administered by the IV and SC routes in cattle. The release kinetics of the compound of Example 2 were compared with administration in a formulation with a triacetin/benzyl alcohol (ratio of 2:1 wt/vol) and with administration in a formulation of triacetin/2-pyrrolidinone (ratio of 2:1 wt/vol). The study was conducted in cattle (n=3)."}, "[6]": {"assay": "Aqueous solubility", "assay_type": "physicochemical", "conditions": "aqueous medium (not further specified)", "protocol": "In some therapeutic applications florfenicol is administered in concentrated organic solution subcutaneously where it is known to form localized depot of the drug which results in the desired sustained release of the drug into the circulation. In such cases solubility of florfenicol in aqueous media represents one of important factors determining the rate of the sustained release. Another important factor affecting the sustained release of florfenicol from the subcutaneous depot site is the concentration of the dosing solution and the solvent composition of the formulation. Apart from the broader range of solvents which can be used for acceptable formulations of florfenicol benzylic carbonate prodrugs these prodrugs also allow a wide range of aqueous solubilities. Solubilities achieved with these prodrugs range from slightly to dramatically lower than that of florfenicol. Reduced aqueous solubilities of such prodrugs may be useful in controlling the rate of dissolution of the prodrug at the subcutaneous depot site and may allow achieving optimized sustained release of the parent drug."}}, "note": "Where two headings read alike, the source gives them in different places."}
{"smiles": "CCOC(=O)O[C@H](c1ccc(S(C)(=O)=O)cc1)[C@@H](CF)NC(=O)C(Cl)Cl", "note": "[Example 2, (1R,2S)-2-(2,2-dichloroacetamido)-3-fluoro-1-(4-(methylsulfonyl)phenyl)propyl ethyl carbonate]", "values": [{"measurement": "Florfenicol released from prodrugs (% of total) after treatment with bovine serum", "setting": "[1]; 0 h", "value": "BQL^a"}, {"measurement": "Florfenicol released from prodrugs (% of total) after treatment with bovine serum", "setting": "[1]; 1 h", "value": "BQL"}, {"measurement": "Florfenicol released from prodrugs (% of total) after treatment with bovine serum", "setting": "[1]; 2 h", "value": "BQL"}, {"measurement": "Solubility at selected concentration of contained florfenicol", "setting": "[2]; 10% weight/volume florfenicol", "value": "soluble"}, {"measurement": "Solubility at selected concentration of contained florfenicol", "setting": "[2]; 20% weight/volume florfenicol", "value": "soluble"}, {"measurement": "Solubility at selected concentration of contained florfenicol", "setting": "[2]; 25% weight/volume florfenicol", "value": "soluble"}, {"measurement": "Solubility at selected concentration of contained florfenicol", "setting": "[2]; 30% weight/volume florfenicol", "value": "soluble"}, {"measurement": "Solubility at selected concentration of contained florfenicol", "setting": "[2]; 35% weight/volume florfenicol", "value": "soluble"}, {"measurement": "Solubility at selected concentration of contained florfenicol", "setting": "[2]; 37% weight/volume florfenicol", "value": "soluble"}, {"measurement": "Solubility at selected concentration of contained florfenicol", "setting": "[2]; 40% weight/volume florfenicol", "value": "insoluble"}, {"measurement": "Treatment Failure (on day 10)", "setting": "[3]; single S/C dose equivalent to 40 mg/kg of florfenicol (Nuflor 40 mg/kg; Example 2 48 mg/kg), animals failing out of animals treated", "value": "5 out of 24"}, {"measurement": "Temp. (day 0)", "setting": "[3]; single S/C dose equivalent to 40 mg/kg of florfenicol (Nuflor 40 mg/kg; Example 2 48 mg/kg), day 0", "value": 40.4, "unit": "°C"}, {"measurement": "Temp. (day 3)", "setting": "[3]; single S/C dose equivalent to 40 mg/kg of florfenicol (Nuflor 40 mg/kg; Example 2 48 mg/kg), day 3", "value": 38.8, "unit": "°C"}, {"measurement": "Temp. (day 10)", "setting": "[3]; single S/C dose equivalent to 40 mg/kg of florfenicol (Nuflor 40 mg/kg; Example 2 48 mg/kg), day 10", "value": 38.7, "unit": "°C"}, {"measurement": "efficacy compared with Nuflor", "setting": "[3]; single SC dose, cattle with BRD", "value": "comparable"}, {"measurement": "Syringeability measurement: Dripping time", "setting": "[4]", "value": "207 ± 3", "unit": "s"}, {"measurement": "Syringeability measurement: Relative to NUFLOR", "setting": "[4]", "value": 0.89}, {"measurement": "time of release of active antibiotic (florfenicol) after administration", "setting": "[5]; IV", "value": "less than half an hour"}, {"measurement": "AUC", "setting": "[5]; subcutaneous administration, read-out: Total Average AUC of the compound of Example 2 (unchanged prodrug)", "value": 38000, "unit": "ng·h/mL"}, {"measurement": "AUC", "setting": "[5]; subcutaneous administration, read-out: Total Average AUC of the compound of Example 2 as Florfenicol Equivalent", "value": 30400, "unit": "ng·h/mL"}, {"measurement": "converted to Florfenicol once absorbed from SC site", "setting": "[5]; subcutaneous administration", "value": 83.5, "unit": "%"}, {"measurement": "solubility", "setting": "[6]", "value": 690, "unit": "µg/mL"}]}
